Here are results for one molecule from patent US20230340498A1, “COMPOSITIONS AND METHODS FOR INDUCIBLE ALTERNATIVE SPLICING REGULATION OF GENE EXPRESSION” (The Children's Hospital of Philadelphia, priority 2020, published 2023).

The subject of one test is AAV9.X^on.eGFP. Description: In vivo induction of AAV9.X^on.eGFP in mice by oral LMI070. As to the method: Animals and histology. Animal protocols were approved by The Children’s Hospital of Philadelphia Institutional Animal Care and Use Committee. Five to six-week-old male C57Bl6/j mice were obtained from Jackson Laboratories (Bar Harbor, ME, USA). AAV vectors (AAV9. X^on.eGFP or AAVPHBeB.X^on.eGFP; generated at the CHOP Research Vector Core) were administrated by retroorbital injection at 7-8 weeks of age with a total of 3E11 vg in 150 µL infused. After 4 weeks, a single dose of LMI070 (5 or 50 mg/kg, MedChemExpress HY-19620) or vehicle solution was administrated by oral gavage. After 18-24 h, mice used for biochemical or molecular studies were anesthetized and perfused with 0.9% cold saline mixed with 2-ml RNAlater (Ambion) solution. Brains and liver samples were collected, flash frozen in liquid nitrogen, and stored at -80 C until use. For immunohistochemistry studies, mice were perfused with 15 mL ice-cold 0.1 M PBS followed by 15 mL 4% paraformaldehyde. For brain sections, eGFP visualization was done by IHC using rabbit anti-GFP antibody (Invitrogen, 1:200) followed by Alexa488-conjugated goat anti-rabbit (Invitrogen, 1:500) and Alexa488-conjugated chicken anti-goat (Invitrogen, 1:500). Slices were mounted on Superfrost plus slides and coverslips mounted using fluoro-gel mounting media. Sections were analyzed using a DM6000B Leica microscope equipped with a L5 ET filter cube (ex:em of 470±20:525±15 nm and dichroic 495 nm), a 20X HC APO PLAN (N.A. 0.70) lens connected to a Sola Light Engine LED light source (Lumencor). Images were collected with a Hammatsu Orca flash4.0 monochrome camera controlled by Leica LAS X (v.3.0.3) software. Brain images represent a 7.98 µm thick z-stack deconvoluted by 3 iterations of the Blind algorithm.
(§1) RNA extraction, RT-PCR, and Splicing assays. Total RNA was extracted using Trizol (Life Technologies) according to the manufacturer’s protocol, with the exception of 1 µL Glycoblue (Life Technologies) in addition to the aqueous phase on the isopropanol precipitation step and a single wash with cold 70% ethanol. To determine HTT expression levels after transfection, RNA samples were quantified by spectrophotometry and subsequently cDNAs generated from […] of total RNA with random hexamers (TaqMan RT reagents, Applied Biosystems). To determine human HTT expression levels in HEK293 cells, we used TaqMan probes for human HTT and glyceraldehyde 3-phosphate dehydrogenase (GAPDH) mRNAs obtained from Applied Biosystems. Relative HTT gene expression was determined using the ddCt method. To determine splicing of the SMN2-on and Xon switches, 2 µg of total RNA from HEK293 cells or tissue samples was treated with DNAseI Free kit (Thermofisher) followed by cDNA generation using the High capacity cDNA kit (Thermofisher). Splicing was determined by PCR using the Phusion High-Fidelity polymerase (Thermofisher) and PCR products separated on a 2.5% agarose gel pre-stained with EtBr and spliced-in and spliced-out band densitometry performed using with the ChemiDoc Imaging System (BioRad) and Image Lab analysis software. Splicing induction from mouse tissues was determined using two custom TaqMan assays designed to determine total or LMI070-spliced in mRNA transcripts. The percentage of induction was determined by dividing the average Ct novel exon and average Ct Total, relative to control animals injected with AAV virus plus vehicle.
(§2) Western Blots. HEK293 cells were rinsed and lysed with Passive Lysis Buffer (PBL, Promega), protein concentrations determined using the DC protein assay (Bio-Rad), and 10-20 µg of protein loaded on a 3%-8% NuPAGE Tris-Acetate Gel in tris-acetate buffer (Novex Life Technologies) or a 4-12% NuPAGE TrisBis NuPAGE gels in MES buffer (Novex Life Technologies) to determine HTT, SaCas9, or eGFP protein levels, respectively, with β-catenin as loading control. […]

The subject of the next test is HTT. Description: X^on-SaCas9 regulated HTT exon 1 editing in HEK293 cells. The test is classed as cell-based, Human. As to the method:
Cell culture, transfection, and LMI070/RG7800 treatment. Human embryonic kidney (HEK293) cells (obtained from CHOP Research Vector Core stock) were maintained in DMEM media containing 10% Fetal Bovine Serum (FBS), 1% L-Glutamine and 1% penicillin/streptomycin at 37° C. with 5% CO2. Cells were cultured in 24 well plates and transfected at 80-90% confluence using Lipofectamine 2000 transfection reagent, according to the manufacturer’s protocol. For all experiments, 4 hours after plasmid transfection, cells were treated with LMI070 (MedChemExpress, HY-19620, suspended in DMSO) or RG7800 (MedChemExpress, HY-101792A, suspended in H2O) at the indicated concentrations. Cells were tested for mycoplasma by Research Vector Core. None of the cells used in the study were listed in ICLAC database of commonly misidentified cell lines.
as §1, with “To determine splicing of the SMN2-on and Xon switches, 2 µg of total RNA from HEK293 cells or tissue samples was treated with DNAseI Free kit (Thermofisher) followed by cDNA generation using the High capacity cDNA kit (Thermofisher).” left out
as §2

Where [1] appears, read: spliced expression cassette relative to vehicle, LMI070 50 mg/kg.

Each structure is given as a SMILES string.

Turning to `CC1(C)CC(Oc2ccc(-c3ccc(-c4cn[nH]c4)cc3O)nn2)CC(C)(C)N1` [LMI070, 5-(1H-Pyrazol-4-yl)-2-(6-((2,2,6,6-tetramethylpiperidin-4-yl)oxy)pyridazin-3-yl)phenol], the “eGFP expression in sections from liver” value in the test on AAV9.X^on.eGFP (AAV9.X^on.eGFP 3E11 vg/mouse IV, single dose LMI070 5 or 50 mg/kg, 24 h later) was “notable eGFP expression”. Further, the “induction in liver after repeat dosing” value in the test on AAV9.X^on.eGFP (LMI070 50 mg/kg oral, second dose after one week washout, histology, western blot, splicing assay) is “evident in liver after the first and the second dose”. Besides, the “induction in skeletal muscle and heart” value with AAV9.X^on.eGFP (LMI070 50 mg/kg oral, histology and splicing assay) is “notable”. For the same molecule, the “protein levels and novel exon splicing versus dose” value in the test with AAV9.X^on.eGFP (liver, LMI070 5 or 50 mg/kg) is reported as “directly correlated to the LMI070 dose”. In the test with AAV9.X^on.eGFP (setting [1]), the “relative level of induction in heart” value is ~ 3000 fold and the “relative level of induction in liver” value was roughly 1000 fold. Besides, the “SaCas9 expression from X^on switch” value in the test with HTT (HEK293 cells, varying doses of LMI070, western blot 24 h) was “clear dose response”. Further, in the test with HTT (X^on-SaCas9 plus gRNAs, 100 nM LMI070), the “HTT exon 1 editing versus constitutively expressed SaCas9” value was “equivalent editing”. Further, in the test with HTT (X^on-SaCas9 plus gRNAs, upon LMI070 treatment, RT-qPCR), the “reduction of HTT transcripts” value is given as 50%. Moreover, in the test on HTT (X^on-SaCas9 plus gRNAs, upon LMI070 treatment, western blot), the HTT protein levels entry was “similarly reduced”.
